Results on 15 molecules are retold here after ChEMBL document CHEMBL5325435, “Optimization of an α-aminonaphthylmethylphosphonic acid inhibitor of purple acid phosphatase using rational structure-based design approaches” (Eur J Med Chem, 2023).

The nature of this assay: Competitive inhibition of pig uterine fluid fully reduced PAP using p-NPP as substrate measured at 4.9 by UV-Vis spectrophotometric analysis. In kind it is tissue-based, Sus scrofa.

Molecule `CCCCCCCCCCCCCCCCOCC(=O)NC(c1ccccc1)P(=O)(O)O` (racemic) had an inhibition constant Ki of 550 nM.
In the case of `CCCCCCCCCCCCCCCCCC(=O)NC(c1ccc(OC)cc1)P(=O)(O)O` (racemic) it was 186 nM.
Take `CCCCCCCCOCC(=O)NC(c1ccccc1)P(=O)(O)O` (racemic): the inhibitory constant (Ki) is 56000 nM.
In the case of `CCCCCCCCCCCCCCCCCC(=O)NC(c1ccccc1)P(=O)(O)O` (racemic), the inhibition constant (Ki) was found to be 168 nM.
Take `CCCCCCCCCCCCCCCC(=O)NC(c1ccc(OCC)cc1)P(=O)(O)O` (racemic): affinity was put at a Ki of 610 nM.
The result for `CCCCCCCCCCCC(=O)NC(c1ccccc1)P(=O)(O)O` (racemic) reads 31000 nM; that for `CCCCCCCCCCCCCCCCCC(=O)NC(c1ccc(OCC)cc1)P(=O)(O)O` (racemic), 6000 nM.
In turn, `CCCCCCCCCC(=O)NC(c1ccccc1)P(=O)(O)O` (racemic) showed an inhibition constant Ki of 19000 nM.
Molecule `CCCCCCCCCCCCCC(=O)NC(c1ccc(OCC)cc1)P(=O)(O)O` (racemic) displayed an inhibition constant Ki of 3000 nM.
The result for `CCCCCCCCCCCCCC(=O)NC(c1ccccc1)P(=O)(O)O` (racemic) reads 320 nM.
In the case of `CCCCCCCCCCCCCCCC(=O)NC(c1ccccc1)P(=O)(O)O` (racemic) it was 320 nM; in that of `CCCCCCCCCCCC(=O)NC(c1ccc(OC)cc1)P(=O)(O)O` (racemic), 3000 nM; in that of `CCCCCCCCCCCCCCCC(=O)NC(c1ccc(OC)cc1)P(=O)(O)O` (racemic), 340 nM.
On to `CCCCCCCCCCCCCC(=O)NC(c1ccc(OC)cc1)P(=O)(O)O` (racemic), for which the affinity corresponds to a Ki of 400 nM.
Molecule `CCCCCCCCCCCCCCCCOCC(=O)NC(c1ccc(OC)cc1)P(=O)(O)O` (racemic) came in with an inhibition constant Ki of 270 nM.

What is called Ki is the dissociation constant of the complex between target and ligand, obtained from inhibition or displacement. A lower Ki goes with tighter binding.
